Data reported in patent US9988379B2, “GPR40 receptor agonist, methods of preparing the same, and pharmaceutical compositions containing the same as an active agent” (LG CHEM, LTD., priority 2012, dated 2018).

Molecular target: T1, human GPR40 (Homo sapiens, UniProt O14842)
T1 construct: expressed in transfected cells; host or cells: CHO-K1
Test: Induction of Ca2+ (calcium flux assay) using human GPR40 expression cell line
Format: cell-based
Details: read-out: EC0.5
Procedure: Evaluation of the Test Compounds for Induction of Ca^2+ Using Human GPR40 Expression Cell Line
The cell line expressing human GPR40 was generated by transfection of the GPR40 expression vector into CHO-K1 cell, and used in the following calcium flux assay.
The cell line was cultured in cell-culture medium (F-12 (Invitrogen) supplemented with 10% (v/v) FBS (Fetal Bovine Serum; Invitrogen), 0.5 mg/ml Geneticin (Invitrogen) and 1% (v/v) Antibiotic-Antimycotic solution (Invitrogen)) under the condition of 5% CO2 and 37° C. For calcium flux assay, the cells were diluted with the cell-culture medium to a concentration of 5×10^5 cells/ml, and the diluted cell suspension was dispensed in amount of 100 μl/well to a 96-well transparent bottom black polystyrene cell culture plate (Corning) and then cultured for 24 hours. The following concentrations of test compounds were added to these cells, and then the changes in intracellular calcium concentration were measured by FlexStation II384 (Molecular Devices). The following solution was prepared before the measurement.
First, a buffer solution for assay was prepared for use in the manufacture of fluorescent dye solution. This buffer solution was prepared by adding 1M HEPES solution (Invitrogen) to HBSS (Hanks' Balanced Salt Solution) (Invitrogen) and then adding 1M NaOH (Nacalai Tesque) to adjust pH to 7.4. Then the fluorescent dye solution was prepared according to the manufacturer's instruction attached to Calcium 5 Assay Kit (Molecular Devices), and the final DMSO concentration was adjusted to 2%.
The fluorescent dye solution was added in an amount of 100 μl/well to supernatant of the cell culture plate cultured for 24 hours. The plate was cultured for 1 hour under the condition of 5% CO2 and 37° C. so that the fluorescent dye was inserted into the cell.
Test compounds (i.e., the compounds prepared in the Examples) dissolved in dimethyl sulfoxide (DMSO ACROS) were diluted 200-fold in the buffer solution for assay to prepare compound solutions corresponding to the respective concentrations. […] 50 μl of the prepared sample solutions was added to each well of 96-well polypropylene plates (NUNC), and thereby a compound plate was prepared. Finally, the compound plate and the cell culture plate cultured for 1 hour with the fluorescent dye were placed in FlexStation II384.
After the above pre-treatment, the change in the intracellular calcium concentration when each concentration of the test compound solutions was added at 50 μl was measured by FlexStation II^384.
Then, the relative activity values depending on the concentration of the compound were plotted using Prism 4 software (GraphPad) to calculate the EC0.5 value.

T1 sequence (O14842 whole entry): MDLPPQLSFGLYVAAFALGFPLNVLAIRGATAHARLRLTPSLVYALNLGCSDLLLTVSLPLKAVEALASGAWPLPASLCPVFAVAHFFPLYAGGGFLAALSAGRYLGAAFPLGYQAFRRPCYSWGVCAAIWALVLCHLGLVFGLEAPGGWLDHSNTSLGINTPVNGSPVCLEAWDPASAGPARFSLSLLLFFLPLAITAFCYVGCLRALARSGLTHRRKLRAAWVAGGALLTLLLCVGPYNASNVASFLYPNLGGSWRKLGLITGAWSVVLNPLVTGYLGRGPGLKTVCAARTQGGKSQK

Structure (SMILES): CC#C[C@@H](CC(=O)O)c1ccc(OCc2cccc3c2cnn3Cc2ccccc2)cc1 [Example 48, (S)-3-[4-(1-benzyl-1H-indazol-4-ylmethoxy)-phenyl]-hex-4-ynoic acid]
- EC50: 1 to 50 nM

Structure (SMILES): O=C(O)CCc1ccc(NCc2ccc3ccn(-c4ccc(F)cc4)c3c2)cc1 [Example 10, 3-(4-{[1-(4-fluoro-phenyl)-1H-indol-6-ylmethyl]-amino}-phenyl)-propanoic acid]
- EC50: 700 nM

Structure (SMILES): CC#C[C@@H](CC(=O)O)c1ccc(OCc2cnc3c(ccn3Cc3ccccc3)c2)cc1 [Example 143, (S)-3-[4-(1-benzyl-1H-pyrrolo[2,3-b]pyridin-5-ylmethoxy)-phenyl]-hex-4-ynoic acid]
- EC50: 1 to 50 nM

Structure (SMILES): CC#C[C@@H](CC(=O)O)c1ccc(OCc2ccc3c(cnn3CC3CC3)c2)cc1 [Example 165, (S)-3-[4-(1-cyclopropylmethyl-1H-indazol-5-ylmethoxy)-phenyl]-hex-4-ynoic acid]
- EC50: 1 to 50 nM

Structure (SMILES): CC#C[C@@H](CC(=O)O)c1ccc(OCc2ccnc3c2c(F)cn3CC(C)C)cc1 [Example 225, (S)-3-[4-(3-fluoro-1-isobutyl-1H-pyrrolo[2,3-b]pyridin-4-ylmethoxy)-phenyl]-hex-4-ynoic acid]
- EC50: 13 nM

Structure (SMILES): O=C(O)C[C@@H](c1ccc(OCc2ccc3cnn(CC4CC4)c3c2)cc1)c1ccon1 [Example 97, (S)-3-[4-(1-cyclopropylmethyl-1H-indazol-6-ylmethoxy)-phenyl]-3-isoxazol-3-yl-propanoic acid]
- EC50: 50 nM

Structure (SMILES): O=C(O)CCc1ccc(NCc2ccc3ccn(-c4ccsc4)c3c2Cl)cc1 [Example 8, 3-{4-[(7-chloro-1-thiophen-3-yl-1H-indol-6-ylmethyl)-amino]-phenyl}-propanoic acid]
- EC50: ≥ 500 nM

Structure (SMILES): CC#C[C@@H](CC(=O)O)c1ccc(OCc2ccc3cnn(C(C)C)c3c2C)cc1 [Example 220, (S)-3-[4-(1-isopropyl-7-methyl-1H-indazol-6-ylmethoxy)-phenyl]-hex-4-ynoic acid]
- EC50: 3 nM

Structure (SMILES): CC#C[C@@H](CC(=O)O)c1ccc(OCc2ccc3c(cnn3CC3CCCO3)c2)cc1 (stereo partly drawn) [Example 151, (S)-3-{4-[1-(tetrahydrofuran-2-ylmethyl)-1H-indazol-5-ylmethoxy]-phenyl}-hex-4-ynoic acid]
- EC50: 1 to 50 nM

Structure (SMILES): O=C(O)C[C@@H](c1ccc(OCc2ccc3ccn(Cc4ccc(F)cc4)c3n2)cc1)c1ccon1 [Example 95, (S)-3-{4-[1-(4-fluoro-benzyl)-1H-pyrrolo[2,3-b]pyridin-6-ylmethoxy]-phenyl}-3-isoxazol-3-yl-propanoic acid]
- EC50: 100 nM

Structure (SMILES): O=C(O)C[C@@H](c1ccc(OCc2ccc3cnn(Cc4ccc(F)cc4)c3c2)cc1)c1ccon1 [Example 86, (S)-3-{4-[1-(4-fluoro-benzyl)-1H-indazol-6-ylmethoxy]-phenyl}-3-isoxazol-3-yl-propanoic acid]
- EC50: 10 nM

Structure (SMILES): CC#C[C@@H](CC(=O)O)c1ccc(OCc2ccc3ccn(Cc4ccc(F)cc4)c3c2C)cc1 [Example 50, (S)-3-{4-[1-(4-fluoro-benzyl)-7-methyl-1H-indol-6-ylmethoxy]-phenyl}-hex-4-ynoic acid]
- EC50: 50 to 500 nM

Structure (SMILES): O=C(O)C1CC1c1ccc(OCc2ccc3cnn(Cc4ccccc4)c3c2)cc1 (stereo not drawn) [Example 167, 2-[4-(1-benzyl-1H-indazol-6-ylmethoxy)-phenyl]-cyclopropane carboxylic acid]
- EC50: 60 nM

Structure (SMILES): CC#C[C@@H](CC(=O)O)c1ccc(OCc2cc(C)c3nn(Cc4ccccc4)cc3c2)cc1 [Example 127, (S)-3-[4-(2-benzyl-7-methyl-2H-indazol-5-ylmethoxy)-phenyl]-hex-4-ynoic acid]
- EC50: 1 to 50 nM

Structure (SMILES): CC#C[C@@H](CC(=O)O)c1ccc(OCc2ccc3c(CN4CCOCC4)nn(CC(C)C)c3c2)cc1 [Example 219, (S)-3-[4-(1-isobutyl-3-morpholin-4-ylmethyl-1H-indazol-6-ylmethoxy)-phenyl]-hex-4-ynoic acid]
- EC50: 23 nM

Structure (SMILES): O=C(O)CC1CCCc2cc(OCc3ccc4c(cnn4Cc4ccccc4)c3)ccc21 (stereo not drawn) [Example 119, [6-(1-benzyl-1H-indazol-5-ylmethoxy)-1,2,3,4-tetrahydro-naphthalen-1-yl]-acetic acid]
- EC50: 60 nM

Structure (SMILES): O=C(O)C[C@@H](c1ccc(OCc2ccc3cn[nH]c3c2)cc1)c1ccon1 [Example 102, (S)-3-[4-(1H-indazol-6-ylmethoxy)-phenyl]-3-isoxazol-3-yl-propanoic acid]
- EC50: 400 nM

Structure (SMILES): Cc1cc(F)ccc1-n1ccc2ccc(COc3ccc4c(c3)OCC4CC(=O)O)cc21 (stereo not drawn) [Example 24, {6-[1-(4-fluoro-2-methyl-phenyl)-1H-indol-6-ylmethoxy]-2,3-dihydro-benzofuran-3-yl}-acetic acid]
- EC50: 20 nM

Structure (SMILES): CC#C[C@@H](CC(=O)O)c1ccc(OCc2ccc3cnn(C(C)C)c3c2)cc1 [Example 180, (S)-3-[4-(1-isopropyl-1H-indazol-6-ylmethoxy)-phenyl]-hex-4-ynoic acid]
- EC50: 1 to 50 nM

Structure (SMILES): O=C(O)C[C@@H](c1ccc(OCc2ccc3cnn(Cc4ccccc4)c3c2)cc1)c1ccon1 [Example 85, (S)-3-[4-(1-benzyl-1H-indazol-6-ylmethoxy)-phenyl]-3-isoxazol-3-yl-propanoic acid]
- EC50: 10 nM

Structure (SMILES): O=C(O)CC1CCc2cc(OCc3ccc4cnn(Cc5ccccc5)c4c3)ccc21 (stereo not drawn) [Example 109, [5-(1-benzyl-1H-indazol-6-ylmethoxy)-indan-1-yl]-acetic acid]
- EC50: 400 nM

Structure (SMILES): CC#C[C@@H](CC(=O)O)c1ccc(OCc2ccc3c(COC)nn(CC(C)C)c3c2)cc1 [Example 188, (S)-3-[4-(1-isobutyl-3-methoxymethyl-1H-indazol-6-ylmethoxy)-phenyl]-hex-4-ynoic acid]
- EC50: 5 nM

Structure (SMILES): Cc1cc(COc2ccc3c(c2)OCCC3CC(=O)O)cc2cnn(Cc3ccccc3)c12 (stereo not drawn) [Example 129, [7-(1-benzyl-7-methyl-1H-indazol-5-ylmethoxy)-chroman-4-yl]-acetic acid]
- EC50: 80 nM

Structure (SMILES): CC#C[C@@H](CC(=O)O)c1ccc(OCc2ccc3ccn(Cc4ccc(OC)cc4)c3c2C)cc1 [Example 28, (S)-3-{4-[1-(4-methoxy-benzyl)-7-methyl-1H-indol-6-ylmethoxy]-phenyl}-hex-4-ynoic acid]
- EC50: 10 nM

Structure (SMILES): CC(C)Cn1ncc2cc(COc3ccc4c(c3)OCCC4CC(=O)O)ccc21 (stereo not drawn) [Example 133, [7-(1-isobutyl-1H-indazol-5-ylmethoxy)-chroman-4-yl]-acetic acid]
- EC50: 400 nM

Structure (SMILES): CC#C[C@@H](CC(=O)O)c1ccc(OCc2ccc3c(Cn4cccn4)nn(CC(C)C)c3c2C)cc1 [Example 228, (S)-3-[4-(1-isobutyl-7-methyl-3-pyrazol-1-ylmethyl-1H-indazol-6-ylmethoxy)-phenyl]-hex-4-ynoic acid]
- EC50: 1 to 50 nM

Structure (SMILES): CC#C[C@@H](CC(=O)O)c1ccc(OCc2ccc3ccn(Cc4cccc(COC)c4)c3c2C)cc1 [Example 30, (S)-3-{4-[1-(3-methoxymethyl-benzyl)-7-methyl-1H-indol-6-ylmethoxy]-phenyl}-hex-4-ynoic acid]
- EC50: 40 nM

Structure (SMILES): CC#C[C@@H](CC(=O)O)c1ccc(OCc2ccc3c(C)nn(CC(C)C)c3c2)cc1 [Example 178, (S)-3-[4-(1-isobutyl-3-methyl-1H-indazol-6-ylmethoxy)-phenyl]-hex-4-ynoic acid]
- EC50: 1 to 50 nM

Structure (SMILES): CC#C[C@@H](CC(=O)O)c1ccc(OCc2ccc3c(CN4CCCC(F)(F)C4)cn(CC(C)C)c3n2)cc1 [Example 232, (S)-3-{4-[3-(3,3-difluoro-piperidin-1-ylmethyl)-1-isobutyl-1H-pyrrolo[2,3-b]pyridin-6-ylmethoxy]-phenyl}-hex-4-ynoic acid]
- EC50: 12 nM

Structure (SMILES): CC#C[C@@H](CC(=O)O)c1ccc(OCc2ccc3ccn(Cc4ccc(C(F)(F)F)cc4)c3c2C)cc1 [Example 29, (S)-3-{4-[7-methyl-1-(4-trifluoromethyl-benzyl)-1H-indol-6-ylmethoxy]-phenyl}-hex-4-ynoic acid]
- EC50: 70 nM

Structure (SMILES): Cc1cc(COc2ccc3c(c2)OCCC3CC(=O)O)cc2cnn(CC(C)C)c12 (stereo not drawn) [Example 131, [7-(1-isobutyl-7-methyl-1H-indazol-5-ylmethoxy)-chroman-4-yl]-acetic acid]
- EC50: 50 to 500 nM

Structure (SMILES): CC#C[C@@H](CC(=O)O)c1ccc(OCc2ccc3c(c2)n(C)c(=O)n3Cc2ccccc2)cc1 [Example 161, (S)-3-[4-(1-benzyl-3-methyl-2-oxo-2,3-dihydro-1H-benzoimidazol-5-ylmethoxy)-phenyl]-hex-4-ynoic acid]
- EC50: 5 nM

Structure (SMILES): CC#C[C@@H](CC(=O)O)c1ccc(OCc2ccnc3c2ccn3CC(C)C)cc1 [Example 204, (S)-3-[4-(1-isobutyl-1H-pyrrolo[2,3-b]pyridin-4-ylmethoxy)-phenyl]-hex-4-ynoic acid]
- EC50: 9 nM
